For 3 compounds, Ki results are on record in BindingDB's records for doi:10.1021/jm00021a005 (University of Wisconsin-Madison, 1995).

The target of the assay is Peptidyl-prolyl cis-trans isomerase A, cyclophilin A (Homo sapiens) (UniProt P62937). Description: The compound was tested for inhibition of […] isomerase (PPIase).
Chain of Peptidyl-prolyl cis-trans isomerase A, cyclophilin A (Homo sapiens) (P62937 whole entry, looked up): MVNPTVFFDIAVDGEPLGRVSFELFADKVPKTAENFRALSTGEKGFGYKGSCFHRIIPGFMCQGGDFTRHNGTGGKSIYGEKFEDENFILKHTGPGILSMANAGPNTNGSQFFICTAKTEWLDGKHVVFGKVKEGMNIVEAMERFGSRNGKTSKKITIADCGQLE
On to `C/C=C/CC(C)[C@@H](O)[C@H]1C(=O)N[C@@H](CC)C(=O)N(C)CC(=O)N(C)[C@@H](CC(C)C)C(=O)N[C@@H](C(C)C)C(=O)N(C)[C@H](CC(C)C)C(=O)N[C@H](Cc2ccccc2)C(=O)N[C@@H](CO)C(=O)N(C)[C@H](CC(C)C)C(=O)N(C)[C@@H](CC(C)C)C(=O)N(C)[C@H](C(C)C)C(=O)N1C` (stereo partly drawn) [15-Benzyl-30-ethyl-12-hydroxymethyl-33-(1-hydroxy-2-methyl-hex-4-enyl)-6,9,18,24-tetraisobutyl-3,21-diisopropyl-1,4,7,10,19,25,28-heptamethyl-1,4,7,10,13,16,19,22,25,28,31undecaaza-cyclotritriacontan-2,5,8,11,14,17,20,23,26,29,32-undecaone], for which the affinity, expressed as Ki, was 6 nM.

On to `C/C=C/CC(C)C(O)[C@H]1C(=O)N[C@@H](CC)C(=O)N(C)[C@H](C)C(=O)N(C)[C@@H](CC(C)C)C(=O)N[C@@H](C(C)C)C(=O)N(C)[C@H](CC(C)C)C(=O)N[C@H](Cc2ccccc2)C(=O)N[C@H](C)C(=O)N(C)[C@H](CC(C)C)C(=O)N(C)[C@@H](CC(C)C)C(=O)N(C)[C@H](C(C)C)C(=O)N1C` (stereo partly drawn) [15-Benzyl-30-ethyl-33-(1-hydroxy-2-methyl-hex-4-enyl)-6,9,18,24-tetraisobutyl-3,21-diisopropyl-1,4,7,10,12,19,25,27,28-nonamethyl-1,4,7,10,13,16,19,22,25,28,31undecaaza-cyclotritriacontan-2,5,8,11,14,17,20,23,26,29,32-undecaone], for which affinity was put at a Ki of 6 nM.

For the compound `C/C=C/CC(C)[C@@H](O)[C@H]1C(=O)N[C@@H](CC)C(=O)N(C)CC(=O)N(C)[C@@H](CC(C)C)C(=O)N[C@@H](C(C)C)C(=O)N(C)[C@H](CC(C)C)C(=O)N[C@H](Cc2ccccc2)C(=O)N[C@H](C)C(=O)N(C)[C@H](CC(C)C)C(=O)N(C)[C@@H](CC(C)C)C(=O)N(C)[C@H](C(C)C)C(=O)N1C` (stereo partly drawn) [15-Benzyl-30-ethyl-33-(1-hydroxy-2-methyl-hex-4-enyl)-6,9,18,24-tetraisobutyl-3,21-diisopropyl-1,4,7,10,12,19,25,28-octamethyl-1,4,7,10,13,16,19,22,25,28,31undecaaza-cyclotritriacontan-2,5,8,11,14,17,20,23,26,29,32-undecaone], the Ki – broadly, the equilibrium dissociation constant of an inhibitor or competing ligand from its target – turned out to be 33 nM. Against the preceding compound, the Ki is about 5.5-fold higher.
